For assay [1], the target named is T1, BTK (Homo sapiens, UniProt Q06187).
T1 construct: purchased Promega
As to the kind of experiment: Determination of BTK inhibitory activity (ADP-Glo kinase assay). It counts as biochemical. Particulars: BTK (Promega), Poly E4Y substrate, 25° C., 60 minutes. How it is done: To a 384 reaction plate (6008280, PerkinElmer), 2 μL/well of BTK solution (purchased from Promega) was added. The test compound (10 mM stock solution) was diluted 100-fold to 100 μM with 100% DMSO. In a 384 dilution plate (3657, coming), a 1:3 dilution was made, and the gradient concentrations of the test compounds were 100, 33.3, 11.1, 3.7, 1.24, 0.41, 0.14, 0.046, 0.015, 0.0051, 0 μM. 2 μL of the test compound was transferred to a 384-dilution plate containing 38 μL of 1× Kinase Reaction Buffer, homogenized and centrifuged at 1000 rpm. 1 μL of the test compound was transferred to the 384 reaction plate, centrifuged at 1000 rpm, and incubated at 25° C. for 15 minutes. 2 μL of substrate mixture (ATP: 10 mM, 4 μL; Poly E4Y 1:1 mg/mL, 20 μL; Kinase Reaction Buffer: 776 μL) was transferred to a 384 reaction plate, centrifuged at 1000 rpm and incubated at 25° C. for 60 minutes. The final concentration of the test compound in the reaction system was the gradients of 1000, 333.3, 111.1, 37.03, 12.35, 4.14, 1.37, 0.46, 0.15, 0.051, 0 nM. The final concentration of DMSO was 1%. 5 μL of ADP-Glo solution (purchased from Promega) was transferred to a 384 reaction plate, centrifuged at 1000 rpm and incubated at 25° C. for 40 minutes. 10 μL of Detection solution was transferred to a 384 reaction plate, centrifuged at 1000 rpm and incubated for 40 minutes at 25° C. The RLU (Relative luminescence unit) signal was read using an Envision multi-function reader (Perkin Elmer), and the signal intensity was used to characterize the activity of BTK kinase. The IC50 values was calculated and analyzed by Microsoft Excel software.
For orientation: ADP-Glo turns the ADP formed in a reaction into a luminescent signal.

In assay [2] the test system is Type 2 Collagen Induced DBA/1J Mouse Arthritis Model (CIA). In words: Type 2 collagen induced DBA/1J mouse arthritis model (CIA), arthritis index score. It counts as in vivo. As to conditions: CIA DBA/1 mice, 30 mg/kg orally once a day, n = 9. How it is done:
The CIA model is an animal model widely used to study the drug activity on human rheumatoid arthritis.
Animals: DBA/1 mice, sex: male, number: 30, weight: 14-16 g, age of weeks: 6-7 weeks old, purchased from Beijing Weitong Lihua Experimental Animal Technology Co., Ltd., SPF, animal production license number: SCXK (Beijing) 2012-0001, the issue unit: Beijing Science and Technology Commission.
Group: model control group, administration (30 mg/Kg) group (compound of example 33).
An appropriate amount of Bovine Type II Collage (purchased from Chondrex. Inc.) was dissolved in 0.05 M acetic acid (4 mg collagen/mL) and stored in a refrigerator at 4° C. overnight. Then it was fully emulsified with an equal amount of complete Freund's adjuvant in an ice bath environment. Each DBA/1J mouse was injected subcutaneously at 1.5 cm from the base of the tail with 0.1 mL emulsion (200 μg of collagen). Clinical symptom observation and arthritis score were started 4 weeks after modeling. The scores of all symptomatic animals were ranked and randomly grouped into two groups, which were model control group (the same amount of 0.5% CMC was administered orally) and administration group (30 mg/kg of the compound of Example 33 was administered orally) respectively. The administration was continued for 21 days withonce a day. Arthritis scores and body weight changes were measured every 3 days after administration.
Arthritis Index Score: The arthritis index score is based on Wood's arthritis score as follows: • 0 points: normal • 1 points: redness involving 1 knuckle • 2 points: redness involving more than 2 knuckles or mild redness involving entire foot • 3 points: the feet are red and swollen • 4 points: the feet are severely red and swollen, and the joints are stiff and inelastic.
The damage of each of the 4 paws was graded as 0-4 points and the total score of the limbs was calculated. The scores at different times were compared (arthritis index).

T1 sequence (Q06187 whole entry): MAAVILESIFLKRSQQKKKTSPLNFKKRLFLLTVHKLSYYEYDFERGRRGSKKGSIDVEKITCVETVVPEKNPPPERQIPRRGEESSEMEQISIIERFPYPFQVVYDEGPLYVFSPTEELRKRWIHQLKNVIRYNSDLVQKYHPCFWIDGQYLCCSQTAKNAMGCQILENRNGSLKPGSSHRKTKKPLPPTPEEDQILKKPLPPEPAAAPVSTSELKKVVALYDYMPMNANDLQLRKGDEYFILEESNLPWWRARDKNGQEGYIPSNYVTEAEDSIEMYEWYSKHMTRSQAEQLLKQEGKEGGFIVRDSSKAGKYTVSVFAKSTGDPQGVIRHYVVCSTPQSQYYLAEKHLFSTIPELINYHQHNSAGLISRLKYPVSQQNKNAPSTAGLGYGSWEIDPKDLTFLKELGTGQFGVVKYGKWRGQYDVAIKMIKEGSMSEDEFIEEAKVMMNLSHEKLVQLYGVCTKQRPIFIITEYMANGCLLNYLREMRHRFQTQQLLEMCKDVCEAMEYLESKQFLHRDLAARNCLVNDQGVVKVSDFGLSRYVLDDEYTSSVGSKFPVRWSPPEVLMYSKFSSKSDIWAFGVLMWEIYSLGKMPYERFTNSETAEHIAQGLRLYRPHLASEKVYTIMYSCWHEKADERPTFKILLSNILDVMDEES

The IC50 is the concentration that inhibits the measured activity by half. Read a low IC50 as greater potency. Consider `C=CC(=O)Nc1cccc(Oc2ncnc3[nH]c(-c4ccc(NC5CCN(C)CC5)cc4)cc23)c1` [Example 53, N-(3-((6-(4-((1-methylpiperidin-4-yl)amino)phenyl)-7H-pyrrolo[2,3-d]pyrimidin-4-yl)oxy)phenyl)acrylamide], for which the IC50 in assay [1] was below 100 nM. Turning to `CC#CC(=O)Nc1cccc(Oc2ncnc3[nH]c(-c4ccc(N5CCN(C)CC5)cc4)cc23)c1` [Example 6, N-(3-((6-(4-(4-methylpiperazin-1-yl)phenyl)-7H-pyrrolo[2,3-d]pyrimidin-4-yl)oxy)phenyl) but-2-ynylamide], the IC50 in assay [1] is below 100 nM.

As for `C=CC(=O)Nc1cccc(Oc2ncnc3[nH]c(-c4ccc(N5CCN(C)CC5)cc4)cc23)c1` [Example 12, N-(3-((6-(4-(4-methylpiperazin-1-yl)phenyl)-7H-pyrrolo[2,3-d]pyrimidin-4-yl)oxy)phenyl) acrylamide], in assay [1], the IC50 is below 100 nM. `C=CC(=O)Nc1cc(Oc2ncnc3[nH]c(-c4ccc(N5CCN(C)CC5)cc4)cc23)ccc1F` [Example 18, N-(2-fluoro-5-((6-(4-(4-methylpiperazin-1-yl)phenyl)-7H-pyrrolo[2,3-d]pyrimidin-4-yl)oxy)phenyl)acrylamide]: the IC50 in assay [1] is below 100 nM. For the molecule `CC#CC(=O)Nc1cccc(Oc2ncnc3[nH]c(-c4ccc(CN5CCC(F)(F)CC5)cc4)cc23)c1` [Example 63, N-(3-((6-(4-((4,4-difluoropiperidin-1-yl)methyl)phenyl)-7H-pyrrolo[2,3-d]pyrimidin-4-yl)oxy)phenyl)but-2-ynylamide], the IC50 in assay [1] is below 100 nM. For `C=CC(=O)Nc1cccc(Oc2ncnc3[nH]c(-c4ccc(CN5CCC(F)(F)CC5)cc4)cc23)c1` [Example 47, N-(3-((6-(4-((4,4-Difluoropiperidin-1-yl)methyl)phenyl)-7H-pyrrolo[2,3-d]pyrimidin-4-yl)oxy)phenyl)acrylamide], the IC50 in assay [1] is below 100 nM.

As to `C=CC(=O)Nc1cccc(Oc2ncnc3[nH]c(-c4ccc(N5CCN(C)CC5)c(F)c4)cc23)c1` [Example 25, N-(3-((6-(3-fluoro-4-(4-methylpiperazin-1-yl)phenyl)-7H-pyrrolo[2,3-d]pyrimidin-4-yl)oxy)phenyl)acrylamide], the IC50 in assay [1] is below 100 nM. Still for that read-out and setting: as for `C=CC(=O)Nc1cccc(Oc2ncnc3[nH]c(-c4ccc(CN5CCOCC5)cc4)cc23)c1` [Example 46, N-(3-((6-(4-(morpholinomethyl)phenyl)-7H-pyrrolo[2,3-d]pyrimidin-4-yl)oxy)phenyl)acrylamide], the figure is below 100 nM; as for `C=CC(=O)Nc1cc(Oc2ncnc3[nH]c(-c4ccc(N5CCOCC5)cc4)cc23)ccc1F` [Example 19, N-(2-Fluoro-5-((6-(4-morpholinylphenyl)-7H-pyrrolo[2,3-d]pyrimidin-4-yl)oxy)phenyl)acrylamide], below 100 nM. In turn, `C=CC(=O)Nc1cccc(Oc2c(F)cnc3[nH]c(-c4ccc(N5CCN(C)CC5)cc4)cc23)c1` [Example 2, N-(3-((5-fluoro-2-(4-(4-methylpiperazin-1yl)phenyl)-1H-pyrrolo[2,3-b]pyridin-4-yl)oxy)phenyl) acrylamide] registered an IC50 in assay [1] below 100 nM. For `C=CC(=O)Nc1cccc(Oc2c(Cl)cnc3[nH]c(-c4ccc(N5CCN(C)CC5)cc4)cc23)c1` [Example 1, N-(3-((5-chloro-2-(4-(4-methylpiperazin-1yl)phenyl)-1H-pyrrolo[2,3-b]pyridin-4-yl)oxy)phenyl)acrylamide], the concentration for half-maximal inhibition (IC50) in assay [1] was below 100 nM. In the case of `C=CC(=O)Nc1cccc(Oc2ncnc3[nH]c(-c4ccc(CN5CCS(=O)(=O)CC5)cc4)cc23)c1` [Example 44, N-(3-((6-(4-((1,1-dioxothiomorpholinyl)methyl)phenyl)-7H-pyrrolo[2,3-d]pyrimidin-4-yl)oxy)phenyl)acrylamide], the IC50 in assay [1] is below 100 nM. In the case of `C=CC(=O)Nc1cccc(Oc2ncnc3[nH]c(-c4ccc(N5CCOCC5)cc4)cc23)c1` [Example 33, N-(3-((6-(4-morpholinylphenyl)-7H-pyrrolo[2,3-d]pyrimidin-4-yl)oxy)phenyl)acrylamide], the Arthritis score in assay [2] (3 day after administration) is given as 5.00 ± 3.16; in assay [2] (7 day after administration), 5.78 ± 2.91; in assay [2] (10 day after administration) it was 6.13 ± 3.23; in assay [2] (14 day after administration, *P < 0.05 vs model control), 5.13 ± 3.60*; in assay [2] (17 day after administration, *P < 0.05 vs model control), 4.63 ± 3.11*; in assay [2] (21 day after administration, **P < 0.01 vs model control), 3.63 ± 1.92**. In assay [2] (Before administration), this molecule showed an Arthritis score of 4.11 ± 3.26. As to `CC#CC(=O)Nc1cccc(Oc2ncnc3[nH]c(-c4ccc(CN5CCCCC5)cc4)cc23)c1` [Example 64], the half-maximal inhibitory concentration (IC50) in assay [1] was below 100 nM. Same read-out and setting: the figure for `C=CC(=O)Nc1cccc(Nc2ncnc3[nH]c(-c4ccc(N5CCOCC5)cc4)cc23)c1` [Example 32, N-(3-((6-(4-morpholinylphenyl)-7H-pyrrolo[2,3-d]pyrimidin-4-yl)amino)phenyl) acrylamide] is below 100 nM.

Molecule `C=CC(=O)N(C)c1cccc(Oc2ncnc3[nH]c(-c4ccc(N5CCOCC5)cc4)cc23)c1` [Example 16, N-methyl-N-(3-((6-(4-morpholinylphenyl)-7H-pyrrolo[2,3-d]pyrimidin-4-yl)oxy)phenyl)acrylamide] yielded an IC50 in assay [1] below 100 nM.

`C=CC(=O)Nc1cccc(Nc2ncnc3[nH]c(-c4ccc(N5CCN(C)CC5)cc4)cc23)c1` [Example 5, N-(3-((6-(4-(4-methylpiperazin-1-yl)phenyl)-7H-pyrrolo[2,3-d]pyrimidin-4-yl)amino)phenyl)acrylamide]: in assay [1], the IC50 was below 100 nM.

These data come from patent US11608334B2, “Pyrrolo-aromatic heterocyclic compound, preparation method therefor, and medical use thereof” (The National Institutes of Pharmaceutical R&D Co., Ltd., priority 2017, dated 2023).
